In patent publication EP2776398B1, “SUBSTITUTED PYRAZOLYL-BASED UREA DERIVATIVES AS VANILLOID RECEPTOR LIGANDS” (Medifron DBT Inc., priority 2011, dated 2013):

Molecular target: T1, vanilloid receptor 1 (VR1/TRPV1 receptor) (Homo sapiens, UniProt Q8NER1)
T1 construct: expressed in transfected cells; host or cells: CHO K1 cells (ECACC), stably transfected
Test: Functional testing on vanilloid receptor 1: FLIPR Ca2+ influx assay against capsaicin (Cap) in transfected CHO K1 cells (pharmacological method II); on Ki: 100 nM capsaicin
Format: cell-based
Design: key to (f) Ki (human being) [nM] Cap: agonist classification: AG = agonist
Settings: human VR1 in CHO K1 cells; AG printed instead of a Ki
From the text: […]

T1 sequence (Q8NER1 whole entry): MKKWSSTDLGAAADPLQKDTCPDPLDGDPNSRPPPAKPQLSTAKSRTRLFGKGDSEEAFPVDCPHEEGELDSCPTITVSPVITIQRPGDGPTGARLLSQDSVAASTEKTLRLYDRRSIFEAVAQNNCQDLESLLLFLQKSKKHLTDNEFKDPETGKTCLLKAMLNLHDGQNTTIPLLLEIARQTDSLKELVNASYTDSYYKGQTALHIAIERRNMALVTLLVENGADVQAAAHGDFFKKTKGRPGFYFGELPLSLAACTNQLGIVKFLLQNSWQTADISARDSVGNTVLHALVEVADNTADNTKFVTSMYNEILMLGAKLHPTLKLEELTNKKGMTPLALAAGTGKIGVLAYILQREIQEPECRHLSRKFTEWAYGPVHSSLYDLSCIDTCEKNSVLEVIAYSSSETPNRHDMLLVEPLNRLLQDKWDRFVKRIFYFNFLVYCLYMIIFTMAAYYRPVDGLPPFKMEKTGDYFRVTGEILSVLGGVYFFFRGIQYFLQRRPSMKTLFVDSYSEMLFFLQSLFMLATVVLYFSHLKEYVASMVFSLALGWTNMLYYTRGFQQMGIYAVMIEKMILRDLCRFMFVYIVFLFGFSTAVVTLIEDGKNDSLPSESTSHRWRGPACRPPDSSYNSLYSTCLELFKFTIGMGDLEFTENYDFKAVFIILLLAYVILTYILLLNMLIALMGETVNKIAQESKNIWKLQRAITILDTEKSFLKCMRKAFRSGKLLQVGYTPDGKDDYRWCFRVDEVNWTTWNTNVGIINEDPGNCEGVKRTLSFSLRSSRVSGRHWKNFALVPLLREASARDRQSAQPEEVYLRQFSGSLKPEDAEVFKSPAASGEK

(f) Ki (human being) [nM] Cap: agonist classification	Structure (SMILES)
AG	CC(C(=O)NCc1cc(C(C)(C)C)nn1-c1cccc(Cl)c1)c1ccc(C(O)CO)c(F)c1 (stereo not drawn) [A145, N-[[5-tert-Butyl-2-(3-chlorophenyl)-2H-pyrazol-3-yl]-methyl]-2-[4-(1,2-dihydroxy-ethyl)-3-fluoro-phenyl]-propionamide]
AG	CC(C(=O)NCc1cc(C(C)(C)C)nn1-c1cccc(F)c1)c1ccc(CO)c(F)c1 (stereo not drawn) [A37, N-[[5-tert-Butyl-2-(3-fluorophenyl)-2H-pyrazol-3-yl]-methyl]-2-[3-fluoro-4-(hydroxymethyl)-phenyl]-propionamide]
AG	COc1ccc(NC(=O)NCc2cc(C(F)(F)F)nn2-c2cccc(Cl)c2)cc1O [A16, 1-[[2-(3-Chlorophenyl)-5-(trifluoromethyl)-2H-pyrazol-3-yl]-methyl]-3-(3-hydroxy-4-methoxy-phenyl)-urea]
AG	COc1c(F)cc(C(C)C(=O)NCc2cc(C(C)(C)C)nn2-c2ccc(F)c(Cl)c2)cc1F (stereo not drawn) [A5, N-[[5-tert-Butyl-2-(3-chloro-4-fluoro-phenyl)-2H-pyrazol-3-yl]-methyl]-2-(3,5-difluoro-4-methoxy-phenyl)-propionamide]

Same assay, conditions: read-out: (f) Ki (human being) [nM] Cap

Ki	Structure (SMILES)
57 nM	C[C@H](C(=O)NCc1cc(C(F)(F)F)nn1-c1cccc(Cl)c1)c1ccc(COCCO)c(F)c1 [A119, (2S)-N-[[2-(3-Chlorophenyl)-5-(trifluoromethyl)-2H-pyrazol-3-yl]-methyl]-2-[3-fluoro-4-(2-hydroxy-ethoxy-methyl)-phenyl]-propionamide]
3 nM	CC(C(=O)NCc1cc(C(F)(F)F)nn1-c1ccc(F)c(Cl)c1)c1ccc(CO)c(F)c1 (stereo not drawn) [A42, N-[[2-(3-Chloro-4-fluoro-phenyl)-5-(trifluoromethyl)-2H-pyrazol-3-yl]-methyl]-2-[3-fluoro-4-(hydroxymethyl)-phenyl]-propionamide]
6 nM	CC(O)c1ccc(C(C)C(=O)NCc2cc(C(F)(F)F)nn2-c2cccc(Cl)c2)cc1F (stereo not drawn) [A99, N-[[2-(3-Chlorophenyl)-5-(trifluoromethyl)-2H-pyrazol-3-yl]-methyl]-2-[3-fluoro-4-(1-hydroxy-ethyl)-phenyl]-propionamide]
12 nM	CC(C(=O)NCc1cc(C(F)(F)F)nn1-c1ccc(F)c(F)c1)c1ccc(C2(O)CC2)c(F)c1 (stereo not drawn) [A104, N-[[2-(3,4-Difluoro-phenyl)-5-(trifluoromethyl)-2H-pyrazol-3-yl]-methyl]-2-[3-fluoro-4-(1-hydroxy-cyclopropyl)-phenyl]-propionamide]
65 nM	O=C(NCc1cc(C(F)(F)F)nn1-c1cccc(Cl)c1)Nc1ccc(OCC(O)CO)c(F)c1 (stereo not drawn) [A25, 1-[[2-(3-Chlorophenyl)-5-(trifluoromethyl)-2H-pyrazol-3-yl]-methyl]-3-[4-(2,3-dihydroxy-propoxy)-3-fluoro-phenyl]-urea]
8 nM	CC(C(=O)NCc1cc(C(F)(F)F)nn1-c1cccc(Cl)c1)c1ccc(CCO)c(F)c1 (stereo not drawn) [A138, N-[[2-(3-Chlorophenyl)-5-(trifluoromethyl)-2H-pyrazol-3-yl]-methyl]-2-[3-fluoro-4-(2-hydroxy-ethyl)-phenyl]-propionamide]
10 nM	O=C(NCc1cc(C(F)(F)F)nn1-c1ccc(Cl)cc1)Nc1ccc(CO)c(F)c1 [A60, 1-[[2-(4-Chlorophenyl)-5-(trifluoromethyl)-2H-pyrazol-3-yl]-methyl]-3-[3-fluoro-4-(hydroxymethyl)-phenyl]-urea]
19 nM	CC(C)(C)c1cc(CNC(=O)Nc2ccc(C3(O)CC3)c(F)c2)n(-c2cccc(Cl)c2)n1 [A105, 1-[[5-tert-Butyl-2-(3-chlorophenyl)-2H-pyrazol-3-yl]-methyl]-3-[3-fluoro-4-(1-hydroxy-cyclopropyl)-phenyl]-urea]
2 nM	CC(C(=O)NCc1cc(C(F)(F)F)nn1-c1cccc(Cl)c1)c1ccc(CO)c(F)c1 (stereo not drawn) [A33, N-[[2-(3-Chlorophenyl)-5-(trifluoromethyl)-2H-pyrazol-3-yl]-methyl]-2-[3-fluoro-4-(hydroxymethyl)-phenyl]-propionamide]
46 nM	COc1cccc(-n2nc(C(F)(F)F)cc2CNC(=O)C(C)c2ccc(COCCO)c(F)c2)c1 (stereo not drawn) [A114, 2-[3-Fluoro-4-(2-hydroxy-ethoxy-methyl)-phenyl]-N-[[2-(3-methoxyphenyl)-5-(trifluoromethyl)-2H-pyrazol-3-yl]-methyl]-propionamide]
13 nM	COc1ccc(-n2nc(C(F)(F)F)cc2CNC(=O)Nc2ccc(CO)c(F)c2)cc1F [A95, 1-[3-Fluoro-4-(hydroxymethyl)-phenyl]-3-[[2-(3-fluoro-4-methoxy-phenyl)-5-(trifluoromethyl)-2H-pyrazol-3-yl]-methyl]-urea]
48 nM	O=C(NCc1cc(C(F)(F)F)nn1-c1cccc(Cl)c1)Nc1ccc(C2(O)COC2)cc1 [A108, 1-[[2-(3-Chlorophenyl)-5-(trifluoromethyl)-2H-pyrazol-3-yl]-methyl]-3-[4-(3-hydroxy-oxetan-3-yl)-phenyl]-urea]
0.2 nM	CC(C)c1cccc(-n2nc(C(F)(F)F)cc2CNC(=O)C(C)c2ccc(CO)c(F)c2)c1 (stereo not drawn) [A44, 2-[3-Fluoro-4-(hydroxymethyl)-phenyl]-N-[[2-(3-isopropyl-phenyl)-5-(trifluoromethyl)-2H-pyrazol-3-yl]-methyl]-propionamide]
140 nM	CC(C(=O)NCc1cc(C(F)(F)F)nn1-c1cccc(Cl)c1)c1cc(F)c(CO)c(F)c1 (stereo not drawn) [A52, N-[[2-(3-Chlorophenyl)-5-(trifluoromethyl)-2H-pyrazol-3-yl]-methyl]-2-[3,5-difluoro-4-(hydroxymethyl)-phenyl]-propionamide]
9 nM	O=C(NCc1cc(C(F)(F)F)nn1-c1ccc(F)cc1)Nc1ccc(CO)c(F)c1 [A63, 1-[3-Fluoro-4-(hydroxymethyl)-phenyl]-3-[[2-(4-fluorophenyl)-5-(trifluoromethyl)-2H-pyrazol-3-yl]-methyl]-urea]
68 nM	COCCOc1ccc(NC(=O)NCc2cc(C(F)(F)F)nn2-c2cccc(Cl)c2)cc1F [A18, 1-[[2-(3-Chlorophenyl)-5-(trifluoromethyl)-2H-pyrazol-3-yl]-methyl]-3-[3-fluoro-4-(2-methoxy-ethoxy)-phenyl]-urea]
33 nM	COc1c(F)cc(CC(=O)NCc2cc(C(F)(F)F)nn2-c2cccc(Cl)c2)cc1F [A2, N-[[2-(3-Chlorophenyl)-5-(trifluoromethyl)-2H-pyrazol-3-yl]-methyl]-2-(3,5-difluoro-4-methoxy-phenyl)-acetamide]
30 nM	COc1c(C)cccc1-n1nc(C(F)(F)F)cc1CNC(=O)Nc1ccc(CO)c(F)c1 [A94, 1-[3-Fluoro-4-(hydroxymethyl)-phenyl]-3-[[2-(2-methoxy-3-methyl-phenyl)-5-(trifluoromethyl)-2H-pyrazol-3-yl]-methyl]-urea]
38 nM	COCCOCc1ccc(C(C)C(=O)NCc2cc(C(F)(F)F)nn2-c2cccc(Cl)c2)cc1F (stereo not drawn) [A111, N-[[2-(3-Chlorophenyl)-5-(trifluoromethyl)-2H-pyrazol-3-yl]-methyl]-2-[3-fluoro-4-(2-methoxy-ethoxy-methyl)-phenyl]-propionamide]
79 nM	COCCOCc1ccc(C(C)C(=O)NCc2cc(C(F)(F)F)nn2-c2ccc(F)c(Cl)c2)cc1F (stereo not drawn) [A112, N-[[2-(3-Chloro-4-fluoro-phenyl)-5-(trifluoromethyl)-2H-pyrazol-3-yl]-methyl]-2-[3-fluoro-4-(2-methoxy-ethoxy-methyl)-phenyl]-propionamide]
25 nM	COc1ccc(NC(=O)NCc2cc(C(F)(F)F)nn2-c2cccc(Cl)c2)cc1OC [A14, 1-[[2-(3-Chlorophenyl)-5-(trifluoromethyl)-2H-pyrazol-3-yl]-methyl]-3-(3,4-dimethoxyphenyl)-urea]
13 nM	CC(C(=O)NCc1cc(C(F)(F)F)nn1-c1cccc(Cl)c1)c1ccc(C(O)CO)cc1 (stereo not drawn) [A146, N-[[2-(3-Chlorophenyl)-5-(trifluoromethyl)-2H-pyrazol-3-yl]-methyl]-2-[4-(1,2-dihydroxy-ethyl)-phenyl]-propionamide]
13 nM	COc1ccc(-n2nc(C(F)(F)F)cc2CNC(=O)Nc2ccc(CO)c(F)c2)cc1 [A68, 1-[3-Fluoro-4-(hydroxymethyl)-phenyl]-3-[[2-(4-methoxyphenyl)-5-(trifluoromethyl)-2H-pyrazol-3-yl]-methyl]-urea]
1 nM	C[C@@H](C(=O)NCc1cc(C(F)(F)F)nn1-c1cccc(Cl)c1)c1ccc(CO)c(F)c1 [A35, (2R)-N-[[2-(3-Chlorophenyl)-5-(trifluoromethyl)-2H-pyrazol-3-yl]-methyl]-2-[3-fluoro-4-(hydroxymethyl)-phenyl]-propionamide]
3 nM	CC(C)(C)c1cc(CNC(=O)Nc2ccc(CO)c(F)c2)n(-c2cccc(Cl)c2)n1 [A55, 1-[[5-tert-Butyl-2-(3-chlorophenyl)-2H-pyrazol-3-yl]-methyl]-3-[3-fluoro-4-(hydroxymethyl)-phenyl]-urea]
117 nM	CC(CO)(CO)c1ccc(NC(=O)NCc2cc(C(F)(F)F)nn2-c2cccc(Cl)c2)cc1F [A154, 1-[[2-(3-Chlorophenyl)-5-(trifluoromethyl)-2H-pyrazol-3-yl]-methyl]-3-[3-fluoro-4-[2-hydroxy-1-(hydroxymethyl)-1-methyl-ethyl]-phenyl]-urea]
45 nM	Cc1ccccc1-n1nc(C(F)(F)F)cc1CNC(=O)Nc1ccc(CO)c(F)c1 [A69, 1-[3-Fluoro-4-(hydroxymethyl)-phenyl]-3-[[2-(o-tolyl)-5-(trifluoromethyl)-2H-pyrazol-3-yl]-methyl]-urea]
26 nM	O=C(NCc1cc(C(F)(F)F)nn1-c1ccc(F)c(F)c1)Nc1ccc(CO)c(F)c1 [A64, 1-[[2-(3,4-Difluoro-phenyl)-5-(trifluoromethyl)-2H-pyrazol-3-yl]-methyl]-3-[3-fluoro-4-(hydroxymethyl)-phenyl]-urea]
35 nM	O=C(NCc1cc(C(F)(F)F)nn1-c1cccc(Cl)c1)Nc1ccc(OCC(O)CO)cc1 (stereo not drawn) [A23, 1-[[2-(3-Chlorophenyl)-5-(trifluoromethyl)-2H-pyrazol-3-yl]-methyl]-3-[4-(2,3-dihydroxy-propoxy)-phenyl]-urea]
